Test results from paper PMC3123319, “Insights into the Regulatory Characteristics of the Mycobacterial Dephosphocoenzyme A Kinase: Implications for the Universal CoA Biosynthesis Pathway” (PLoS ONE, 2011).

Target: T1, dephosphocoenzyme A kinase (CoaE) (Mycobacterium tuberculosis, UniProt P9WPA3)
T1 sequence (P9WPA3 1-407): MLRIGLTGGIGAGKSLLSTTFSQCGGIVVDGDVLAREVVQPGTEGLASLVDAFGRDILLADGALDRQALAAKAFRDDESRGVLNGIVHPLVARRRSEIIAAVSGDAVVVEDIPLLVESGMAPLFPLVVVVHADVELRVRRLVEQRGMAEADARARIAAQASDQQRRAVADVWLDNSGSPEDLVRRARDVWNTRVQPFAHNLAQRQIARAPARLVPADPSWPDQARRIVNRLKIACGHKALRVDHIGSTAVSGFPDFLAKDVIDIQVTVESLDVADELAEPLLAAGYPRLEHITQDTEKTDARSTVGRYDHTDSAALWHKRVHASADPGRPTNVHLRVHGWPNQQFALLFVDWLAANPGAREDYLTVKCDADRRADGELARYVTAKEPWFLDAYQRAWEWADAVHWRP
Assay: coupled PK-LDH spectrophotometric assay, Dixon plot; supported by tryptophan fluorescence quenching, SEC and limited proteolysis
Type: biochemical

For Nc1ccn([C@@H]2O[C@H](COP(=O)(O)OP(=O)(O)OP(=O)(O)O)[C@@H](O)[C@H]2O)c(=O)n1 [CTP], the Ki was 34 µM.
